Test system: patients after acute myocardial infarction
Assay: TCM symptom score, total and single (chest pain, chest tightness, short breath, fatigue, palpitation, spontaneous perspiration, pale complexion), same clinical trial
Assay type: in vivo, human
Text: 3508 patients who were in accordance with the diagnostic standards of AMI for 28 days to 2 years and differentiated as Qi deficiency and blood stagnation syndrome by TCM were studied. 0.5 g Chinese medicine composition prepared by the method of EXAMPLE 1 (Coded as QSYQ) was administrated half an hour after meal, 3 times per day.
They included the overall survival time, angina pectoris score, TCM symptom score and life quality score, where angina pectoris score, TCM symptom score and life quality score were evaluated at randomization, in 1st, 3rd, 6th, 9th, 12th month after treatment and 18th month after follow-up.
The analysis method referred to the angina pectoris score.

[1] = 3 months after treatment-baseline, PP
[2] = 6 months after treatment-baseline, FAS
[3] = 6 months after treatment-baseline, PP

## CC(=O)Oc1ccccc1C(=O)O [Control group, aspirine]
[1]
  change of chest pain score −6, percent of patients: (0.97%)
  change of chest tightness score 0, number of patients: 994
  change of chest tightness score 0, percent of patients: (68.88%)
  change of chest tightness score 3, number of patients: 334
  change of chest tightness score 3, percent of patients: (23.15%)
  change of chest tightness score 6, number of patients: 34
  change of chest tightness score 6, percent of patients: (2.36%)
  change of chest tightness score 9, number of patients: 4
  change of chest tightness score 9, percent of patients: (0.28%)
  change of chest tightness score −3, number of patients: 70
  change of chest tightness score −3, percent of patients: (4.85%)
  change of chest tightness score −6, number of patients: 6
  change of chest tightness score −6, percent of patients: (0.42%)
  change of chest tightness score −9, number of patients: 1
  change of chest tightness score −9, percent of patients: (0.07%)
3 months after treatment, FAS
  chest pain score 0, number of patients: 656
  chest pain score 0, percent of patients: (38.21%)
  chest pain score 3, number of patients: 643
  chest pain score 3, percent of patients: (37.45%)
  chest pain score 6, number of patients: 410
  chest pain score 6, percent of patients: (23.88%)
  chest pain score 9, number of patients: 8
  chest pain score 9, percent of patients: (0.47%)
  chest tightness score 0, number of patients: 656
  chest tightness score 0, percent of patients: (38.21%)
  chest tightness score 3, number of patients: 643
  chest tightness score 3, percent of patients: (37.45%)
  chest tightness score 6, number of patients: 410
  chest tightness score 6, percent of patients: (23.88%)
  chest tightness score 9, number of patients: 8
  chest tightness score 9, percent of patients: (0.47%)
3 months after treatment, PP
  chest pain score 0, number of patients: 550
  chest pain score 0, percent of patients: (38.01%)
  chest pain score 3, number of patients: 535
  chest pain score 3, percent of patients: (36.97%)
  chest pain score 6, number of patients: 356
  chest pain score 6, percent of patients: (24.60%)
  chest pain score 9, number of patients: 6
  chest pain score 9, percent of patients: (0.41%)
  chest tightness score 0, number of patients: 550
  chest tightness score 0, percent of patients: (38.01%)
  chest tightness score 3, number of patients: 535
  chest tightness score 3, percent of patients: (36.97%)
  chest tightness score 6, number of patients: 356
  chest tightness score 6, percent of patients: (24.60%)
  chest tightness score 9, number of patients: 6
  chest tightness score 9, percent of patients: (0.41%)
[2]
  change of chest pain score 0, number of patients: 1104
  change of chest pain score 0, percent of patients: (64.60%)
  change of chest pain score 3, number of patients: 405
  change of chest pain score 3, percent of patients: (23.70%)
  change of chest pain score 6, number of patients: 101
  change of chest pain score 6, percent of patients: (5.91%)
  change of chest pain score 9, number of patients: 6
  change of chest pain score 9, percent of patients: (0.35%)
  change of chest pain score −3, number of patients: 80
  change of chest pain score −3, percent of patients: (4.68%)
  change of chest pain score −6, number of patients: 13
  change of chest pain score −6, percent of patients: (0.76%)
  change of chest pain score −9, number of patients: 0
  change of chest pain score −9, percent of patients: (0.00%)
  change of chest tightness score 0, number of patients: 1105
  change of chest tightness score 0, percent of patients: (64.66%)
  change of chest tightness score 1, number of patients: 1
  change of chest tightness score 1, percent of patients: (0.06%)
  change of chest tightness score 3, number of patients: 459
  change of chest tightness score 3, percent of patients: (26.86%)
  change of chest tightness score 6, number of patients: 48
  change of chest tightness score 6, percent of patients: (2.81%)
  change of chest tightness score 9, number of patients: 4
  change of chest tightness score 9, percent of patients: (0.23%)
  change of chest tightness score −3, number of patients: 88
  change of chest tightness score −3, percent of patients: (5.15%)
  change of chest tightness score −6, number of patients: 3
  change of chest tightness score −6, percent of patients: (0.18%)
  change of chest tightness score −9, number of patients: 1
  change of chest tightness score −9, percent of patients: (0.06%)
[3]
  change of chest pain score 0, number of patients: 919
  change of chest pain score 0, percent of patients: (64.54%)
  change of chest pain score 3, number of patients: 352
  change of chest pain score 3, percent of patients: (24.72%)
  change of chest pain score 6, number of patients: 86
  change of chest pain score 6, percent of patients: (6.04%)
  change of chest pain score 9, number of patients: 5
  change of chest pain score 9, percent of patients: (0.35%)
  change of chest pain score −3, number of patients: 57
  change of chest pain score −3, percent of patients: (4.00%)
  change of chest pain score −6, number of patients: 5
  change of chest pain score −6, percent of patients: (0.35%)
  change of chest pain score −9, number of patients: 0
  change of chest pain score −9, percent of patients: (0.00%)
  change of chest tightness score 0, number of patients: 904
  change of chest tightness score 0, percent of patients: (63.44%)
  change of chest tightness score 1, number of patients: 1
  change of chest tightness score 1, percent of patients: (0.07%)
  change of chest tightness score 3, number of patients: 407
  change of chest tightness score 3, percent of patients: (28.56%)
  change of chest tightness score 6, number of patients: 42
  change of chest tightness score 6, percent of patients: (2.95%)
  change of chest tightness score 9, number of patients: 3
  change of chest tightness score 9, percent of patients: (0.21%)
  change of chest tightness score −3, number of patients: 64
  change of chest tightness score −3, percent of patients: (4.49%)
  change of chest tightness score −6, number of patients: 3
  change of chest tightness score −6, percent of patients: (0.21%)
  change of chest tightness score −9, number of patients: 1
  change of chest tightness score −9, percent of patients: (0.07%)
6 months after treatment, FAS
  chest pain score 0, number of patients: 729
  chest pain score 0, percent of patients: (42.43%)
  chest pain score 3, number of patients: 638
  chest pain score 3, percent of patients: (37.14%)
  chest pain score 6, number of patients: 345
  chest pain score 6, percent of patients: (20.08%)
  chest pain score 9, number of patients: 6
  chest pain score 9, percent of patients: (0.35%)
  chest tightness score 0, number of patients: 729
  chest tightness score 0, percent of patients: (42.43%)
  chest tightness score 3, number of patients: 638
  chest tightness score 3, percent of patients: (37.14%)
  chest tightness score 6, number of patients: 345
  chest tightness score 6, percent of patients: (20.08%)
  chest tightness score 9, number of patients: 6
  chest tightness score 9, percent of patients: (0.35%)
6 months after treatment, PP
  chest pain score 0, number of patients: 613

Source: patent US9211310B2, “Use of a Chinese medicine composition in preparing medicaments for treating secondary prevention of myocardial infarction” (TASLY PHARMACEUTICAL GROUP CO., LTD, priority 2010, dated 2015)
